In publication PMC10360169 (Frontiers in Immunology, 2023):
Read-outs that look alike come from different tables or passages of the source.

Test system: Acar3
Type: binding, great reed warbler Acrocephalus arundinaceus
[1] = Table S5, half-life estimated from dissociation in scintillation proximity assay, Acar3
[2] = Table S1, top 94 PSCPL-scoring peptides, SPA, 10µM peptide, 125I β2m, folding over night at 18°C, dissociation measured up to 24 hours at 37°C

AANMYIYPL [9-mer peptide]
Stability T½ (h), peptide - Acar3 [1]: 0.1 h

AEMRETHWL [9-mer peptide]
Stability T½ of Acar3 in complex with the peptide [2]: 300 min
Stability T½ (h), peptide - Acar3 [1]: 5.0 h

AKIEAPLLL [9-mer peptide]
Stability T½ of Acar3 in complex with the peptide [2]: 150 min
Stability T½ (h), peptide - Acar3 [1]: 2.5 h

AMAAGLSSL [9-mer peptide]
Stability T½ of Acar3 in complex with the peptide [2]: 18 min
Stability T½ (h), peptide - Acar3 [1]: 0.3 h

AMMWRIAQL [9-mer peptide]
Stability T½ of Acar3 in complex with the peptide [2]: 18 min
Stability T½ (h), peptide - Acar3 [1]: 0.3 h

AMPKTIYEL [9-mer peptide]
Stability T½ of Acar3 in complex with the peptide [2]: 228 min
Stability T½ (h), peptide - Acar3 [1]: 3.8 h

AVMFFPFWF [9-mer peptide]
Stability T½ of Acar3 in complex with the peptide [2]: 36 min
Stability T½ (h), peptide - Acar3 [1]: 0.6 h

ETMKPAAMV [9-mer peptide]
Stability T½ of Acar3 in complex with the peptide [2]: 162 min
Stability T½ (h), peptide - Acar3 [1]: 2.7 h

FHMSKPSDL [9-mer peptide]
Stability T½ of Acar3 in complex with the peptide [2]: 48 min
Stability T½ (h), peptide - Acar3 [1]: 0.8 h

FLDKGTYTL [9-mer peptide]
Stability T½ of Acar3 in complex with the peptide [2]: 18 min
Stability T½ (h), peptide - Acar3 [1]: 0.3 h

FLLENAAYL [9-mer peptide]
Stability T½ of Acar3 in complex with the peptide [2]: 72 min
Stability T½ (h), peptide - Acar3 [1]: 1.2 h

FLQGAKWYL [9-mer peptide]
Stability T½ (h), peptide - Acar3 [1]: 0.1 h

FMFDYIPPV [9-mer peptide]
Stability T½ (h), peptide - Acar3 [1]: 0.2 h

FMIVNNFPV [9-mer peptide]
Stability T½ of Acar3 in complex with the peptide [2]: 18 min
Stability T½ (h), peptide - Acar3 [1]: 0.3 h

FQANMFLTL [9-mer peptide]
Stability T½ of Acar3 in complex with the peptide [2]: 72 min
Stability T½ (h), peptide - Acar3 [1]: 1.2 h

FQMGGIGPM [9-mer peptide]
Stability T½ of Acar3 in complex with the peptide [2]: 42 min
Stability T½ (h), peptide - Acar3 [1]: 0.7 h

FRMLAWHVL [9-mer peptide]
Stability T½ of Acar3 in complex with the peptide [2]: 18 min
Stability T½ (h), peptide - Acar3 [1]: 0.3 h

GAMYALANF [9-mer peptide]
Stability T½ of Acar3 in complex with the peptide [2]: 36 min
Stability T½ (h), peptide - Acar3 [1]: 0.6 h

GLAATSFPL [9-mer peptide]
Stability T½ of Acar3 in complex with the peptide [2]: 90 min
Stability T½ (h), peptide - Acar3 [1]: 1.5 h

GMNVTAPAL [9-mer peptide]
Stability T½ of Acar3 in complex with the peptide [2]: 18 min
Stability T½ (h), peptide - Acar3 [1]: 0.3 h

GMVGAEFSL [9-mer peptide]
Stability T½ of Acar3 in complex with the peptide [2]: 456 min
Stability T½ (h), peptide - Acar3 [1]: 7.6 h

GRLVTVNPF [9-mer peptide]
Stability T½ of Acar3 in complex with the peptide [2]: 30 min
Stability T½ (h), peptide - Acar3 [1]: 0.5 h

HELSLFWPL [9-mer peptide]
Stability T½ of Acar3 in complex with the peptide [2]: 66 min
Stability T½ (h), peptide - Acar3 [1]: 1.1 h

ILMEHIHKL [9-mer peptide]
Stability T½ of Acar3 in complex with the peptide [2]: 12 min
Stability T½ (h), peptide - Acar3 [1]: 0.2 h

IMDASSFTL [9-mer peptide]
Stability T½ of Acar3 in complex with the peptide [2]: 84 min
Stability T½ (h), peptide - Acar3 [1]: 1.4 h

KAMRPWQSF [9-mer peptide]
Stability T½ of Acar3 in complex with the peptide [2]: 24 min
Stability T½ (h), peptide - Acar3 [1]: 0.4 h

KAMSTPFSL [9-mer peptide]
Stability T½ of Acar3 in complex with the peptide [2]: 318 min
Stability T½ (h), peptide - Acar3 [1]: 5.3 h

KIMQVDRPM [9-mer peptide]
Stability T½ of Acar3 in complex with the peptide [2]: 156 min
Stability T½ (h), peptide - Acar3 [1]: 2.6 h

KLMDVVYSI [9-mer peptide]
Stability T½ of Acar3 in complex with the peptide [2]: 24 min
Stability T½ (h), peptide - Acar3 [1]: 0.4 h

KMAAFPETL [9-mer peptide]
Stability T½ of Acar3 in complex with the peptide [2]: 24 min
Stability T½ (h), peptide - Acar3 [1]: 0.4 h

KMNAKAATL [9-mer peptide]
Stability T½ of Acar3 in complex with the peptide [2]: 126 min
Stability T½ (h), peptide - Acar3 [1]: 2.1 h

KQLELFWVI [9-mer peptide]
Stability T½ (h), peptide - Acar3 [1]: 0.2 h

KQLESVMYL [9-mer peptide]
Stability T½ of Acar3 in complex with the peptide [2]: 78 min
Stability T½ (h), peptide - Acar3 [1]: 1.3 h

KQLEYSWVL [9-mer peptide]
Stability T½ (h), peptide - Acar3 [1]: 0.1 h

KQMSQPYAV [9-mer peptide]
Stability T½ of Acar3 in complex with the peptide [2]: 240 min
Stability T½ (h), peptide - Acar3 [1]: 4.0 h

KTAAAAAAF [9-mer peptide]
Stability T½ of Acar3 in complex with the peptide [2]: 24 min
Stability T½ (h), peptide - Acar3 [1]: 0.4 h

KTMMQAHDL [9-mer peptide]
Stability T½ of Acar3 in complex with the peptide [2]: 594 min
Stability T½ (h), peptide - Acar3 [1]: 9.9 h

LDMNVVKEL [9-mer peptide]
Stability T½ of Acar3 in complex with the peptide [2]: 36 min
Stability T½ (h), peptide - Acar3 [1]: 0.6 h

LMDENTYAM [9-mer peptide]
Stability T½ of Acar3 in complex with the peptide [2]: 24 min
Stability T½ (h), peptide - Acar3 [1]: 0.4 h

LMMNGTSAM [9-mer peptide]
Stability T½ of Acar3 in complex with the peptide [2]: 48 min
Stability T½ (h), peptide - Acar3 [1]: 0.8 h

LPLPAQQPF [9-mer peptide]
Stability T½ of Acar3 in complex with the peptide [2]: 18 min
Stability T½ (h), peptide - Acar3 [1]: 0.3 h

LPRWPPPQL [9-mer peptide]
Stability T½ of Acar3 in complex with the peptide [2]: 18 min
Stability T½ (h), peptide - Acar3 [1]: 0.3 h

LQMLGENVL [9-mer peptide]
Stability T½ of Acar3 in complex with the peptide [2]: 156 min
Stability T½ (h), peptide - Acar3 [1]: 2.6 h

LRWLAKSFF [9-mer peptide]
Stability T½ of Acar3 in complex with the peptide [2]: 30 min
Stability T½ (h), peptide - Acar3 [1]: 0.5 h

LTMNLVSDI [9-mer peptide]
Stability T½ of Acar3 in complex with the peptide [2]: 270 min
Stability T½ (h), peptide - Acar3 [1]: 4.5 h

MMMPMFNAF [9-mer peptide]
Stability T½ of Acar3 in complex with the peptide [2]: 432 min
Stability T½ (h), peptide - Acar3 [1]: 7.2 h

MMMSTAVAF [9-mer peptide]
Stability T½ of Acar3 in complex with the peptide [2]: 438 min
Stability T½ (h), peptide - Acar3 [1]: 7.3 h

MMWATAQAL [9-mer peptide]
Stability T½ of Acar3 in complex with the peptide [2]: 48 min
Stability T½ (h), peptide - Acar3 [1]: 0.8 h

MPMSMPIPM [9-mer peptide]
Stability T½ of Acar3 in complex with the peptide [2]: 192 min
Stability T½ (h), peptide - Acar3 [1]: 3.2 h

MTYKAAFDL [9-mer peptide]
Stability T½ of Acar3 in complex with the peptide [2]: 108 min
Stability T½ (h), peptide - Acar3 [1]: 1.8 h

QAYAAPQLF [9-mer peptide]
Stability T½ of Acar3 in complex with the peptide [2]: 90 min
Stability T½ (h), peptide - Acar3 [1]: 1.5 h

QMSWLPLCV [9-mer peptide]
Stability T½ of Acar3 in complex with the peptide [2]: 36 min
Stability T½ (h), peptide - Acar3 [1]: 0.6 h

QQMFPGAPF [9-mer peptide]
Stability T½ of Acar3 in complex with the peptide [2]: 24 min
Stability T½ (h), peptide - Acar3 [1]: 0.4 h

QWALLPYLF [9-mer peptide]
Stability T½ of Acar3 in complex with the peptide [2]: 594 min
Stability T½ (h), peptide - Acar3 [1]: 9.9 h

RATQPAAEF [9-mer peptide]
Stability T½ of Acar3 in complex with the peptide [2]: 96 min
Stability T½ (h), peptide - Acar3 [1]: 1.6 h

REMINHYQV [9-mer peptide]
Stability T½ of Acar3 in complex with the peptide [2]: 42 min
Stability T½ (h), peptide - Acar3 [1]: 0.7 h

REWSGLNYL [9-mer peptide]
Stability T½ of Acar3 in complex with the peptide [2]: 114 min
Stability T½ (h), peptide - Acar3 [1]: 1.9 h

RMAMIPRTL [9-mer peptide]
Stability T½ of Acar3 in complex with the peptide [2]: 30 min
Stability T½ (h), peptide - Acar3 [1]: 0.5 h

RMMATKDSF [9-mer peptide]
Stability T½ of Acar3 in complex with the peptide [2]: 24 min
Stability T½ (h), peptide - Acar3 [1]: 0.4 h

RMMGKTNPL [9-mer peptide]
Stability T½ (h), peptide - Acar3 [1]: 0.2 h

RQIRMTSTI [9-mer peptide]
Stability T½ (h), peptide - Acar3 [1]: 0.1 h

SLAIDAYPL [9-mer peptide]
Stability T½ (h), peptide - Acar3: 2.1 h
Stability T½ of Acar3 in complex with the peptide: 126 min

SMFERDFHF [9-mer peptide]
Stability T½ (h), peptide - Acar3 [1]: 0.2 h

SMHFYGWSL [9-mer peptide]
Stability T½ (h), peptide - Acar3 [1]: 0.2 h

SMMPEAMTI [9-mer peptide]
Stability T½ of Acar3 in complex with the peptide [2]: 54 min
Stability T½ (h), peptide - Acar3 [1]: 0.9 h

SQMGLSCAL [9-mer peptide]
Stability T½ of Acar3 in complex with the peptide [2]: 18 min
Stability T½ (h), peptide - Acar3 [1]: 0.3 h

STEFIPNLF [9-mer peptide]
Stability T½ of Acar3 in complex with the peptide [2]: 18 min
Stability T½ (h), peptide - Acar3 [1]: 0.3 h

SVYFAAFAF [9-mer peptide]
Stability T½ of Acar3 in complex with the peptide [2]: 96 min
Stability T½ (h), peptide - Acar3 [1]: 1.6 h

SYPPPPASF [9-mer peptide]
Stability T½ of Acar3 in complex with the peptide [2]: 12 min
Stability T½ (h), peptide - Acar3 [1]: 0.2 h

VIMWYNYLF [9-mer peptide]
Stability T½ of Acar3 in complex with the peptide [2]: 18 min
Stability T½ (h), peptide - Acar3 [1]: 0.3 h

VMMAKRPLI [9-mer peptide]
Stability T½ of Acar3 in complex with the peptide [2]: 30 min
Stability T½ (h), peptide - Acar3 [1]: 0.5 h

VMPLLVWLF [9-mer peptide]
Stability T½ of Acar3 in complex with the peptide [2]: 114 min
Stability T½ (h), peptide - Acar3 [1]: 1.9 h

VPMEKLKAL [9-mer peptide]
Stability T½ of Acar3 in complex with the peptide [2]: 84 min
Stability T½ (h), peptide - Acar3 [1]: 1.4 h

VQTAAAVVF [9-mer peptide]
Stability T½ (h), peptide - Acar3 [1]: 0.2 h

VVKQLPASF [9-mer peptide]
Stability T½ (h), peptide - Acar3 [1]: 0.1 h

WLAKSFFEL [9-mer peptide]
Stability T½ (h), peptide - Acar3 [1]: 0.2 h

WMACNSAAF [9-mer peptide]
Stability T½ of Acar3 in complex with the peptide [2]: 54 min
Stability T½ (h), peptide - Acar3 [1]: 0.9 h

WMMAMRYPI [9-mer peptide]
Stability T½ of Acar3 in complex with the peptide [2]: 186 min
Stability T½ (h), peptide - Acar3 [1]: 3.1 h

WQLTSIWPI [9-mer peptide]
Stability T½ of Acar3 in complex with the peptide [2]: 42 min
Stability T½ (h), peptide - Acar3 [1]: 0.7 h

YLLEMLWRL [9-mer peptide]
Stability T½ of Acar3 in complex with the peptide [2]: 24 min
Stability T½ (h), peptide - Acar3 [1]: 0.4 h

YLMPYSVYI [9-mer peptide]
Stability T½ (h), peptide - Acar3 [1]: 0.1 h

YLQQNTHTL [9-mer peptide]
Stability T½ of Acar3 in complex with the peptide [2]: 30 min
Stability T½ (h), peptide - Acar3 [1]: 0.5 h

YLYLRPYAL [9-mer peptide]
Stability T½ of Acar3 in complex with the peptide [2]: 144 min
Stability T½ (h), peptide - Acar3 [1]: 2.4 h

YMHGSIHEV [9-mer peptide]
Stability T½ of Acar3 in complex with the peptide [2]: 54 min
Stability T½ (h), peptide - Acar3 [1]: 0.9 h

YMKKRYEEF [9-mer peptide]
Stability T½ (h), peptide - Acar3 [1]: 0.2 h

YMWECPDFF [9-mer peptide]
Stability T½ of Acar3 in complex with the peptide [2]: 156 min
Stability T½ (h), peptide - Acar3 [1]: 2.6 h
